{"source": "patent US5817667A", "about": "“Compounds and methods for the treatment of cancer” (University of Georgia Research Foudation, priority 1994, dated 1998)", "key": {"NCI-H23": {"test_system": "NCI-H23", "assay": "NCI cancer screening, growth inhibition (SRB)", "assay_type": "cell-based", "conditions": "Non-Small Cell Lung Cancer, 48 hours exposure"}, "SK-MEL-5": {"test_system": "SK-MEL-5", "assay": "NCI cancer screening, growth inhibition (SRB)", "assay_type": "cell-based", "conditions": "Melanoma, 48 hours exposure"}, "COLO205": {"test_system": "COLO205", "assay": "NCI cancer screening, growth inhibition (SRB)", "assay_type": "cell-based", "conditions": "Homo sapiens, COLO 205, 48 h, read-out: Log10 GI50 (converted)"}, "SK-OV-3": {"test_system": "SK-OV-3", "assay": "NCI cancer screening, growth inhibition (SRB)", "assay_type": "cell-based", "conditions": "Homo sapiens, SK-OV-3, 48 h, read-out: Log10 GI50 (converted)"}, "cells": {"assay": "cells", "conditions": "48 h, read-out: Log10 GI50 (converted)"}, "leukemia cell lines": {"test_system": "leukemia cell lines", "assay": "NCI cancer screening, relative sensitivity (FIG. 4)", "assay_type": "cell-based", "conditions": "FIG. 4, certain leukemia cell lines", "description": "(§1) Bars extending to the right represent sensitivity of the cell line to (-)-OddC in excess of the average sensitivity of all tested cell lines. […] Bars extending to the left correspondingly imply sensitivity less than the mean. These cell lines can be easily determined from Table 2, as the log10 concentration will be preceded by a \">\"."}, "colon cell lines": {"test_system": "colon cell lines", "assay": "NCI cancer screening, relative sensitivity (FIG. 4)", "assay_type": "cell-based", "conditions": "FIG. 4, certain colon cell lines", "description": "as §1"}, "[1]": {"test_system": "each type of cancer cell tested", "assay": "NCI cancer screening, relative sensitivity (FIG. 4)", "assay_type": "cell-based", "conditions": "FIG. 4, on the basis of GI50; at least one cell line of each type", "description": "as §1"}, "[2]": {"test_system": "prostate cancer cell lines", "assay": "NCI cancer screening, relative sensitivity (FIG. 4)", "assay_type": "cell-based", "conditions": "FIG. 4, certain prostate cancer cell lines", "description": "as §1"}, "K2112 [3]": {"test_system": "K2112", "conditions": "Colon Cancer; 48 hours exposure"}, "U251": {"test_system": "U251", "assay": "NCI cancer screening, growth inhibition (SRB)", "assay_type": "cell-based", "conditions": "CNS Cancer, 48 hours exposure"}, "T-47D": {"test_system": "T-47D", "assay": "NCI cancer screening, growth inhibition (SRB)", "assay_type": "cell-based"}, "K-562": {"test_system": "K-562", "assay": "NCI cancer screening, growth inhibition (SRB)", "assay_type": "cell-based", "conditions": "Leukemia, 48 hours exposure"}, "SR": {"test_system": "SR", "assay": "NCI cancer screening, growth inhibition (SRB)", "assay_type": "cell-based", "conditions": "Leukemia, 48 hours exposure"}, "mice": {"test_system": "mice", "assay": "Toxicity to mice in the P388 leukemia protocol", "assay_type": "in vivo, BDF1 mice", "conditions": "75 mg/kg/dose ip, twice daily for five days", "protocol": "10^6 Leukemia P388 cells were implanted ip to BDF1 mice obtained from Southern Research Institute, Alabama. L(-)-OddC was administered ip twice daily for five days starting one day after tumor cell implantation."}, "MALME-3M": {"test_system": "MALME-3M", "assay": "NCI cancer screening, growth inhibition (SRB)", "assay_type": "cell-based", "conditions": "Melanoma, 48 hours exposure"}, "MDA-MB-435": {"test_system": "MDA-MB-435", "assay": "NCI cancer screening, growth inhibition (SRB)", "assay_type": "cell-based", "conditions": "Homo sapiens, MDA-MB-435, 48 h, read-out: Log10 GI50 (converted)"}, "OVCAR-8": {"test_system": "OVCAR-8", "assay": "NCI cancer screening, growth inhibition (SRB)", "assay_type": "cell-based", "conditions": "Homo sapiens, OVCAR-8, 48 h, read-out: Log10 GI50 (converted)"}, "K2112 [4]": {"test_system": "K2112", "assay": "cells", "conditions": "48 h, read-out: Log10 GI50 (converted)"}, "OROV1": {"test_system": "OROV1", "assay": "NCI cancer screening, growth inhibition (SRB)", "assay_type": "cell-based", "conditions": "Ovarian Cancer; 48 hours exposure", "description": "PG=100×(Mean ODtest -Mean ODtzero)/(Mean ODtzero)"}, "M14": {"test_system": "M14", "assay": "NCI cancer screening, growth inhibition (SRB)", "assay_type": "cell-based", "conditions": "Melanoma, 48 hours exposure"}, "BSOLT-4": {"test_system": "BSOLT-4", "assay": "NCI cancer screening, growth inhibition (SRB)", "assay_type": "cell-based", "conditions": "Leukemia; 48 hours exposure"}, "[5]": {"assay": "NCI cancer screening, growth inhibition (SRB)", "assay_type": "cell-based", "conditions": "Leukemia; 48 hours exposure; read-out: Log10 GI50 (converted)"}, "CCRF-CEM": {"test_system": "CCRF-CEM", "assay": "NCI cancer screening, growth inhibition (SRB)", "assay_type": "cell-based", "conditions": "Leukemia, 48 hours exposure"}, "UO-31": {"test_system": "UO-31", "assay": "NCI cancer screening, growth inhibition (SRB)", "assay_type": "cell-based", "conditions": "Renal Cancer, 48 hours exposure"}, "MDA-N": {"test_system": "MDA-N", "assay": "NCI cancer screening, growth inhibition (SRB)", "assay_type": "cell-based", "conditions": "Breast Cancer, 48 hours exposure"}, "OVCAR-4": {"test_system": "OVCAR-4", "assay": "NCI cancer screening, growth inhibition (SRB)", "assay_type": "cell-based"}, "Leukemia P388 cells": {"test_system": "Leukemia P388 cells", "assay": "In vivo treatment of leukemia P388 cells implanted ip in BDF1 mice"}, "LOX D6VI": {"test_system": "LOX D6VI", "assay": "NCI cancer screening, growth inhibition (SRB)", "assay_type": "cell-based", "conditions": "Melanoma, 48 hours exposure"}, "SP-295": {"test_system": "SP-295", "assay": "NCI cancer screening, growth inhibition (SRB)", "assay_type": "cell-based", "conditions": "CNS Cancer, 48 hours exposure"}, "SNB-19": {"test_system": "SNB-19", "assay": "NCI cancer screening, growth inhibition (SRB)", "assay_type": "cell-based", "conditions": "CNS Cancer, 48 hours exposure"}, "DU-145": {"test_system": "DU-145", "assay": "NCI cancer screening, growth inhibition (SRB)", "assay_type": "cell-based", "conditions": "Prostate Cancer; 48 hours exposure"}, "UACC-257": {"test_system": "UACC-257", "assay": "NCI cancer screening, growth inhibition (SRB)", "assay_type": "cell-based"}, "[6]": {"conditions": "25 mg/kg ip, twice a day, days 1 to 5"}, "[7]": {"conditions": "read-out: Log10 GI50 (converted)"}}}
{"molecule": "Nc1ccn([C@@H]2CO[C@H](CO)O2)c(=O)n1", "note": "[(-)-OddC, (-)-(2S,4S)-1-(2-hydroxymethyl-1,3-dioxolan-4-yl)cytosine]", "values": [{"measurement": "GI50", "setting": "NCI-H23; Homo sapiens, NCI-H23, read-out: Log10 GI50 (converted)", "value": 12, "unit": "µM"}, {"measurement": "Log10 TGI", "setting": "NCI-H23", "value": "> -4.00"}, {"measurement": "GI50", "setting": "SK-MEL-5; Homo sapiens, SK-MEL-5, read-out: Log10 GI50 (converted)", "value": 12.3, "unit": "µM"}, {"measurement": "Log10 TGI", "setting": "SK-MEL-5", "value": "> -4.00"}, {"measurement": "GI50", "setting": "COLO205", "value": 93.3, "unit": "µM"}, {"measurement": "GI50", "setting": "SK-OV-3", "value": 4.47, "unit": "µM"}, {"measurement": "GI50", "setting": "cells", "value": "> 100", "unit": "µM"}, {"measurement": "sensitivity to (-)-OddC", "setting": "leukemia cell lines", "value": "extreme sensitivity"}, {"measurement": "sensitivity to (-)-OddC", "setting": "colon cell lines", "value": "extreme sensitivity"}, {"measurement": "sensitivity to (-)-OddC", "setting": "[1]", "value": "exhibited sensitivity"}, {"measurement": "sensitivity to (-)-OddC", "setting": "[2]", "value": "extreme sensitivity"}, {"measurement": "Log10 TGI", "setting": "K2112 [3]", "value": "> -4.00"}, {"measurement": "Log10 TGI", "setting": "U251", "value": "> -4.00"}, {"measurement": "GI50", "setting": "U251; Homo sapiens, U-251, read-out: Log10 GI50 (converted)", "value": 12.3, "unit": "µM"}, {"measurement": "Log10 TGI", "setting": "T-47D; Breast Cancer, 48 hours exposure", "value": "> -4.00"}, {"measurement": "GI50", "setting": "T-47D; Homo sapiens, T47D, 48 h, read-out: Log10 GI50 (converted)", "value": "> 100", "unit": "µM"}, {"measurement": "GI50", "setting": "K-562; Homo sapiens, K562, read-out: Log10 GI50 (converted)", "value": 25.7, "unit": "µM"}, {"measurement": "Log10 TGI", "setting": "K-562", "value": "> -4.00"}, {"measurement": "GI50", "setting": "SR; Homo sapiens, SR, read-out: Log10 GI50 (converted)", "value": 1.12, "unit": "µM"}, {"measurement": "Log10 TGI", "setting": "SR", "value": "> -4.00"}, {"measurement": "toxicity to the mice", "setting": "mice", "value": "toxic to the mice"}, {"measurement": "GI50", "setting": "MALME-3M; Homo sapiens, Malme-3M, read-out: Log10 GI50 (converted)", "value": 30.9, "unit": "µM"}, {"measurement": "Log10 TGI", "setting": "MALME-3M", "value": "> -4.00"}, {"measurement": "GI50", "setting": "MDA-MB-435", "value": 24, "unit": "µM"}, {"measurement": "GI50", "setting": "OVCAR-8", "value": 1.51, "unit": "µM"}, {"measurement": "GI50", "setting": "K2112 [4]", "value": "> 100", "unit": "µM"}, {"measurement": "Log10 TGI", "setting": "OROV1", "value": "> -4.00"}, {"measurement": "GI50", "setting": "M14; Homo sapiens, M14, read-out: Log10 GI50 (converted)", "value": 0.537, "unit": "µM"}, {"measurement": "Log10 TGI", "setting": "M14", "value": -5.07}, {"measurement": "Log10 TGI", "setting": "BSOLT-4", "value": -4.39}, {"measurement": "GI50", "setting": "[5]", "value": 0.219, "unit": "µM"}, {"measurement": "GI50", "setting": "CCRF-CEM; Homo sapiens, CCRF-CEM, read-out: Log10 GI50 (converted)", "value": 0.229, "unit": "µM"}, {"measurement": "Log10 TGI", "setting": "CCRF-CEM", "value": "> -4.00"}, {"measurement": "GI50", "setting": "UO-31; Homo sapiens, UO-31, read-out: Log10 GI50 (converted)", "value": 2.51, "unit": "µM"}, {"measurement": "Log10 TGI", "setting": "UO-31", "value": "> -4.00"}, {"measurement": "Log10 TGI", "setting": "MDA-N", "value": "> -4.00"}, {"measurement": "GI50", "setting": "MDA-N; Homo sapiens, MDA-N, read-out: Log10 GI50 (converted)", "value": 46.8, "unit": "µM"}, {"measurement": "GI50", "setting": "OVCAR-4; Homo sapiens, OVCAR-4, 48 h, read-out: Log10 GI50 (converted)", "value": "> 100", "unit": "µM"}, {"measurement": "Log10 TGI", "setting": "OVCAR-4; Ovarian Cancer, 48 hours exposure", "value": "> -4.00"}, {"measurement": "Cures/Total (survivors equal or greater than 45 day life span)", "setting": "Leukemia P388 cells; [6]", "value": "1/6"}, {"measurement": "ILS (Increased Life Span percent above control)", "setting": "Leukemia P388 cells; [6]", "value": 103, "unit": "%"}, {"measurement": "Mean Survival Time", "setting": "Leukemia P388 cells; 25 mg/kg ip, twice a day, days 1 to 5 (control 13.3 days)", "value": 27, "unit": "days"}, {"measurement": "life span increase of the remaining five mice", "setting": "Leukemia P388 cells; 25 mg/kg/dose ip, twice daily for five days", "value": 103, "unit": "%"}, {"measurement": "long term survivors", "setting": "Leukemia P388 cells; of six mice treated with 25 mg/kg/dose", "value": "one long term survivor"}, {"measurement": "Log10 TGI", "setting": "LOX D6VI", "value": "> -4.00"}, {"measurement": "GI50", "setting": "LOX D6VI; [7]", "value": 0.407, "unit": "µM"}, {"measurement": "Log10 TGI", "setting": "SP-295", "value": "> -4.00"}, {"measurement": "GI50", "setting": "SP-295; [7]", "value": 0.575, "unit": "µM"}, {"measurement": "Log10 TGI", "setting": "SNB-19", "value": "> -4.00"}, {"measurement": "GI50", "setting": "SNB-19; Homo sapiens, SNB-19, read-out: Log10 GI50 (converted)", "value": 1.95, "unit": "µM"}, {"measurement": "Log10 TGI", "setting": "DU-145", "value": "> -4.00"}, {"measurement": "GI50", "setting": "UACC-257; Homo sapiens, UACC-257, 48 h, read-out: Log10 GI50 (converted)", "value": "> 100", "unit": "µM"}, {"measurement": "Log10 TGI", "setting": "UACC-257; Melanoma, 48 hours exposure", "value": "> -4.00"}]}
